Each compound was assayed against p38α MAP kinase (Homo sapiens, UniProt Q16539) (assay: p38α MAP kinase inhibition assay (non radioactive immunosorbent enzyme assay, ATF-2 phosphorylation; Ultra Glo Promega kit)). Conditions: mean of four separated experiments; compounds assayed at 10^−4 to 10^−8 M.
Format: biochemical

Sequence of p38α MAP kinase (Q16539 whole entry): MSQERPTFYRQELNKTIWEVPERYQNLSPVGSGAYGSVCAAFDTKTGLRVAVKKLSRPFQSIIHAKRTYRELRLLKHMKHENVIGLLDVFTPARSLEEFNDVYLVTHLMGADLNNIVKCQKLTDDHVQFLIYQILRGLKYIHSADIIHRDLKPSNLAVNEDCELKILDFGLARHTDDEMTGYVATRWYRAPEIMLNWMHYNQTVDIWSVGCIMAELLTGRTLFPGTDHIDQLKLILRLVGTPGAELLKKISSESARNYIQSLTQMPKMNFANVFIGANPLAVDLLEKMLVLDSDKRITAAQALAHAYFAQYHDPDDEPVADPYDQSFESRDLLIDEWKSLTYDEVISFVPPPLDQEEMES

SMILES | IC50 [µM]
O=C1ON(c2ccccc2)C(c2ccncc2)N1c1ccc(C(F)(F)F)cc1 (centres unmarked) [Compound 3c, 2-Phenyl-4-(4-trifluoromethyl)-3-(pyridin-4-yl)-1,2,4-oxadiazolidin-5-one] | 2
O=C1ON(c2ccccc2)C(c2ccncc2)N1c1ccc(Cl)cc1 (centres unmarked) [Compound 3d, 2-Phenyl-4-(4-chlorophenyl)-3-(pyridin-4-yl)-1,2,4-oxadiazolidin-5-one] | 1.5
O=C1ON(Cc2ccccc2)C(c2ccncc2)N1c1ccc(F)cc1 (centres unmarked) [Compound 3e, 2-Benzyl-4-(4-fluorophenyl)-3-(pyridin-4-yl)-1,2,4-oxadiazolidin-5-one] | 0.08
O=C1ON(Cc2ccccc2)C(c2ccncc2)N1c1ccc([N+](=O)[O-])cc1 (centres unmarked) [Compound 3f, 2-Benzyl-4-(4-nitrophenyl)-3-(pyridin-4-yl)-1,2,4-oxadiazolidin-5-one] | 0.15
O=C1ON(Cc2ccccc2)C(c2ccccc2)N1c1ccc(F)cc1 (centres unmarked) [Compound 3g, 2-Benzyl-4-(4-fluorophenyl)-3-phenyl-1,2,4-oxadiazolidin-5-one] | 15.1
O=C1ON(Cc2ccccc2)C(c2ccccc2)N1c1ccc([N+](=O)[O-])cc1 (centres unmarked) [Compound 3h, 2-Benzyl-4-(4-nitrophenyl)-3-phenyl-1,2,4-oxadiazolidin-5-one] | 60.5
CC1N(Cc2ccccc2)OC(=O)N1c1ccc(F)cc1 (centres unmarked) [Compound 3i, 2-Benzyl-4-(4-fluorophenyl)-3-methyl-1,2,4-oxadiazolidin-5-one] | 18.5
CC1N(c2ccccc2)OC(=O)N1c1ccc(F)cc1 (centres unmarked) [Compound 3l, 2-Phenyl-4-(4-fluorophenyl)-3-methyl-1,2,4-oxadiazolidin-5-one] | 22.8

Reference: paper PMC8003627, “Synthesis and Biological Evaluation of 2,3,4-Triaryl-1,2,4-oxadiazol-5-ones as p38 MAPK Inhibitors” (Molecules, 2021)
